Data reported in patent US20170027172A1, “USE OF SUBSTITUTE OXO TETRAHYDROQUINOLINE SULFONAMIDES OR SALTS THEREOF FOR RAISING STRESS TOLERANCE OF PLANTS” (BAYER CROPSCIENCE AKTIENGESELLSCHAFT, priority 2014, published 2017).

How the values were obtained:
Brassica napus = assay: Drought stress greenhouse test Part C, visual scoring vs stressed control plants; type: in vivo; conditions: spray application 25 g/ha, efficacy range of 3-4 pots
Description: Seeds of monocotyledonous and dicotyledonous crop plants were sown in sandy loam in plastic or wood-fiber pots, covered with soil or sand and cultivated in a greenhouse under good growth conditions. The trial plants were treated at the early leaf stage (BBCH10-BBCH13). To assure uniform water supply before commencement of stress, the potted plants were supplied with water by dam irrigation prior to substance application. The inventive compounds were first formulated as wettable powders (WP) or dissolved in a solvent mixture. The further dilution was effected with water supplemented with 0.2% wetting agent (e.g. agrotin). The finished spray liquor was sprayed onto the green parts of the plant at an equivalent water application rate of 600 l/ha. Substance application was followed immediately by stress treatment of the plants. For this purpose, the wood-fiber pots were transferred in plastic inserts in order to prevent them from subsequently drying out too quickly. Drought stress was induced by gradual drying out under the following conditions: “Day”: 14 hours with illumination at 26-30° C. […] Once this juncture had been reached, the appearance of the plants treated with test substances was recorded in comparison to the stressed control plants by the following categories: [table] For each substance and dosage, 3-4 pots were treated and evaluated. […]

Triticum aestivum = assay: Drought stress test on wheat Part D, reduction in damage intensity from fresh weights; type: in vivo; conditions: efficacy = reduction in damage intensity (fresh weight) under drought stress, 25 g/ha, at least three repeats
Excerpt: Wheat grains were sown in a standardized number in sandy loam soil plastic pots, covered with soil or sand and grown in a greenhouse under good growth conditions. Pots with uneven degrees of emergence were excluded prior to the start of the trial. The treatment with test substances was effected at the early leaf stage (BBCH10-BBCH13). To assure uniform water supply, the potted plants were supplied with water by dam irrigation prior to substance application. The inventive compounds were first formulated as wettable powders (WP) or dissolved in a solvent mixture. The further dilution was effected with water supplemented with 0.2% wetting agent (e.g. agrotin). The finished spray liquor was sprayed onto the green parts of the plant at an equivalent water application rate of 600 l/ha. Substance application was followed immediately by stress treatment of the plants. Drought stress was induced by gradual drying out under the following conditions: “Day”: 14 hours with illumination at 26-30° C. “Night”: 10 hours without illumination at 18-20° C. The duration of the respective stress phases was guided mainly by the condition of the stressed control plants. It was ended (by re-irrigating and transfer to a greenhouse with good growth conditions) as soon as irreversible damage was observed on the stressed control plants. The end of the stress phase was followed by an about 7-day recovery phase, during which the plants were once again kept under good growth conditions in a greenhouse. The exact duration of the recovery phase was variable for reasons related to the trial. At the end of the recovery phase, the fresh weights of the plant parts above ground were determined. By comparison with unstressed control plants which were kept under good growth conditions over the entire duration of the trial, percentage damage intensities were first calculated from the fresh weight values. The reduction in damage intensity resulting from treatment with test substance was then calculated by the following formula: [formula] EF: Efficacy DIs: Damage intensity of the stressed control plants DIt: Damage intensity of the stressed plants treated with test compound The values reported in table D-1 below are results from at least three repeats. BRSNS=Brassica napus TRZAS=Triticum aestivum

Compound: COC(=O)CCN1C(=O)CCc2cc(NS(=O)(=O)Cc3ccc(F)cc3)ccc21 [A51-158]
- Effect (BRSNS) (Brassica napus): 20-30
- EF [%] (TRZAS) (Triticum aestivum): 11%
